Source: patent US12115141B2, “Diagnosis of diabetes by detecting aggregated amylin in erythrocytes” (University of Kentucky Research Foundation, priority 2018, dated 2024)
Read-outs that look alike come from different tables or passages of the source. Values belong to the compound of their own block, whether it stands above or below them. Where no end group is shown, it is not given here.

Key:
amylin = target: T1, amylin (Homo sapiens, UniProt P10997); assay: Amylin aggregation with 14,15-EET (FIG. 15A); format: biochemical
T1 construct: is a 37-amino acid peptide synthesized and co-secreted with insulin
T1 sequence (P10997 34-70 limits assumed): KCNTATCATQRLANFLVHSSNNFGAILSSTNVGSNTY

[1] = system: RBCs / cultured vascular endothelial cells; assay: RBC adhesion assay on cultured vascular endothelial cells; format: cell-based, rat
Experimental: RBCs collected from each HIP rat group (normal, pre-diabetes, diabetes, ±high-fat diet) are infused into AKO rats (300 μL RBCs, daily, 7 days, q.d., via the tail vein). Because diabetes develops later (by 6 mo) in female vs. male HIP rats, AKO rats are matched for age and sex to HIP rats providing the RBCs for infusion. At the end of infusion period, rats are sacrificed, perfused with saline through a catheter implanted into the right external jugular vein to wash out the blood from blood vessels, followed by heart collection and paraffin embedding. Confocal microscopy is used to identify the attachment of amylin-loaded RBCs to vascular endothelium (as in FIG. 5A). Before analysis, heart sections are incubated with 1% Sudan black to block autofluorescence. Control sections with either omitted primary or secondary antibodies are used to establish specific staining. […] Adherence is calculated as percentage of optical density of adhered Hb (as in FIG. 5C).
In some embodiments, adult rat microvascular endothelial cells (RA-6024, Cell Biologics, IL) were cultured on 96-wells cell culture plate coated with cell attachment factor solution (123-100, Sigma, MO). […] The amount of hemoglobin in each well was measured from the optical density (OD) as described above. Adherence was calculated as the percentage of OD of adhered hemoglobin/(OD of total hemoglobin×dilution factor).

cardiac myocytes = assay: Amylin incorporation in cardiac myocytes ex vivo (FIG. 15B); format: cell-based
Experimental: Cardiac myocytes were isolated from rats in all rat groups. Isolated myocytes are used for testing myocyte accumulation of amylin (by ELISA and Western blot, as shown before^8,10), sarcolemmal structural integrity (dye leakage assay, electron microscopy, LC-MS/MS and fluorescent markers) and myocyte Ca^2+ cycling (see below). Each experiment is performed on hearts/myocytes from a number of rats/group. Calculation of the minimum sample size with a two-tail t-test considering α=0.05 and 1−β=0.8; performed with GPower 3.1.9.2.

HIP rats = conditions: cited from earlier work
AKO mice = conditions: cited from earlier work; for amylin deposits in the myocardium: i.v. q.d., 7 days
WT rat RBCs = assay: RBC shape by flow cytometry after incubation with human amylin; format: cell-based
Experimental: In all rat groups (±high-fat diet), the RBC shape distributions are analyzed by FACScan flow cytometry (Becton Dickinson LSRII) as a function of characteristic RBC amylin levels, as in FIG. 4D. The Pearson coefficient of dissymmetry (PCD) shown in FIG. 4D reflects the sphericity of RBCs (PCD=0 indicates RBC spherical shape).
In some embodiments, RBCs (1×10^7 cells) were aliquoted to assay tubes, washed twice with 2 mL incubation buffer (0.5% BSA in PBS), and resuspended in 100 μL incubation buffer. RBCs were incubated with an anti-amylin antibody (1:200, T-4157, Bachem-Peninsula Laboratories, CA) for 1 hour on ice, washed twice with PBS by centrifugation at 1000×g for 1 minute and then incubated with goat anti-rabbit Alexa Fluor® 488 (A11029, Invitrogen, MA) for 30 min on ice. RBCs were then washed twice before re-suspension in 200 μl PBS, and analyzed by flow cytometer (Becton Dickinson LSRII) within 90 min. To assess the cell shape, RBCs were first gated on a forward scatter (FSC)/side scatter (SSC) plot. The R1 events arevisualized using a FSC-A/FSC-H dot plot. For detecting amylin deposited on RBCs, the cells were first gated on a forward scatter (FSC)/side scatter (SSC) plot. RBCs were further gated to determine the amylin signal (Alexa 488), using negative control (no antibody) and positive control to set the upper and lower boundaries.

diabetic UCD rats = assay: Intravenous aggregated human amylin in diabetic UCD rats; format: in vivo, rat
Experimental: To examine further a possible ‘amylin stress” on oxygen-sensing pathways, aggregated human amylin (hA) (0.08 μg/g body weight) was intravenously administered to diabetic UCD rats, daily, for one week. […] This acute “amylin stress” provoked an increase in plasma EPO level (FIG. 23E; the “after hA inj” rat group) and no difference in renal HIF-2α and HIF-1α levels in whole kidney tissue homogenate (FIG. 23F).

[2] = kidney tissue homogenates, FIG. 23G

amylin aggregation (amylin): reduced
Compound: CCCCCC1OC1C/C=C\C/C=C\C/C=C\CCCC(=O)O (racemic) [14,15-EET, (±)14(15)-EET]
adhesion of HIP rat RBCs to cultured endothelial cells ([1]; ex vivo incubation, FIG. 22D): reduced
amylin incorporation in cardiac myocytes (cardiac myocytes): reduced

Compound: CC(=O)N1CCC(NC(=O)NC23CC4CC(CC(C4)C2)C3)CC1 [APAU]
amylin incorporation into RBCs and cardiac myocytes (HIP rats; pre-diabetic HIP rats): lower
heart function (HIP rats; pre-diabetic HIP rats, prior study): improved
levels of aggregated amylin in blood and cardiac myocytes (HIP rats; pre-diabetic male HIP rats, 10 weeks, prior study): lower levels

Arginase 1 protein levels (diabetic UCD rats; [2]): elevated
arginase 2 protein expression (diabetic UCD rats; [2]): no significant change
Compound: human amylin: 37-amino acid amyloid-forming peptide (islet amyloid polypeptide; IAPP), used recombinant/synthetic, aggregated (KCNTATCATQRLANFLVHSSNNFGAILSSTNVGSNTY)
Sarcolemmal Ca2+ leak and Ca2+ transients (AKO mice; females): no significant changes
amylin deposits in the myocardium (AKO mice): showed amylin deposits in the myocardium
Sarcolemmal Ca2+ leak and Ca2+ transients (AKO mice; myocytes from male AKO mice): increased
RBC adherence to cultured endothelial cells ([1]; WT rat RBCs incubated 50 μmol/L, 2 h, FIG. 5C): increased
structural change of RBCs (rounded shape) (WT rat RBCs; 50 μmol/L, 2 h): replicated
morphological change of RBCs (PCD) (WT rat RBCs; 4 hours, FIG. 27): replicated
amylin deposition on RBCs (diabetic UCD rats; 0.08 μg/g body weight i.v. daily, one week, FIG. 23D): amylin deposition on RBCs
plasma EPO level (diabetic UCD rats; 0.08 μg/g i.v. daily, one week, vs baseline, FIG. 23E): increase
renal HIF-2α and HIF-1α levels (diabetic UCD rats; whole kidney tissue homogenate, FIG. 23F): no difference

Compound: rodent amylin: non-amyloidogenic (i.e., monomeric) rodent amylin (KCNTATCATQRLANFLVRSSNNLGPVLPPTNVGSNTY; ends and bridges not checked; cysteine pairing not given here; UniProt P12969 38-74, looked up)
amylin deposits in the myocardium (AKO mice): not
Sarcolemmal Ca2+ leak and Ca2+ transients (AKO mice; rat amylin-infused mice): no significant changes
